Source: ChEMBL document CHEMBL1201862, “PubChem BioAssay data set” (2004)
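Cells were grown in 96-well plates and exposed to each compound for 48 hours at five concentrations; endpoints were interpolated linearly between bracketing concentrations, or set to the highest concentration if not reached. At the GI50, growth is halved.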 Activity calls are given as the source filed them. Cut-off read from the data, not from the text of the source: active = GI50 up to about 1.1 µM and inactive = higher.

Tests used:
Assay in all cases: DTP human tumour cell line panel, 48 h
SR = test system: SR
NCI/ADR-RES = test system: NCI/ADR-RES
HCT-116 = test system: HCT-116
KM12 = test system: KM12
786-0 = test system: 786-0
UACC-62 = test system: UACC-62
SF-295 = test system: SF-295
ACHN = test system: ACHN
SF-539 = test system: SF-539
SNB-75 = test system: SNB-75
EKVX = test system: EKVX
HOP-92 = test system: HOP-92
MDA-MB-435 = test system: MDA-MB-435
T47D = test system: T47D
HT-29 = test system: HT-29
SK-OV-3 = test system: SK-OV-3
UACC-257 = test system: UACC-257
CCRF-CEM = test system: CCRF-CEM
A498 = test system: A498
RPMI-8226 = test system: RPMI-8226
MOLT-4 = test system: MOLT-4
HL-60 = test system: HL-60
M14 = test system: M14
TK-10 = test system: TK-10
SW-620 = test system: SW-620
SK-MEL-28 = test system: SK-MEL-28
K562 = test system: K562
HCT-15 = test system: HCT-15
LOX IMVI = test system: LOX IMVI
HOP-62 = test system: HOP-62
DU-145 = test system: DU-145
Hs-578T = test system: Hs-578T
UO-31 = test system: UO-31
SF-268 = test system: SF-268
HCC 2998 = test system: HCC 2998
PC-3 = test system: PC-3
OVCAR-4 = test system: OVCAR-4
U-251 = test system: U-251
MDA-MB-231 = test system: MDA-MB-231
BT-549 = test system: BT-549
COLO 205 = test system: COLO 205
SK-MEL-2 = test system: SK-MEL-2
SNB-19 = test system: SNB-19
SK-MEL-5 = test system: SK-MEL-5
NCI-H226 = test system: NCI-H226
RXF 393 = test system: RXF 393
MCF7 = test system: MCF7
CAKI-1 = test system: CAKI-1
NCI-H23 = test system: NCI-H23
NCI-H460 = test system: NCI-H460
IGROV-1 = test system: IGROV-1
OVCAR-8 = test system: OVCAR-8
Malme-3M = test system: Malme-3M
SN12C = test system: SN12C
A549 = test system: A549
OVCAR-5 = test system: OVCAR-5
OVCAR-3 = test system: OVCAR-3

Cc1cccc(NC(=S)Nc2ccc([N+](=O)[O-])cc2)n1
GI50 (SR): > 100 µM (inactive) | GI50 (NCI/ADR-RES): > 100 µM (inactive) | GI50 (HCT-116): > 100 µM (inactive) | GI50 (KM12): > 100 µM (inactive) | GI50 (786-0): > 100 µM (inactive) | GI50 (UACC-62): > 100 µM (inactive) | GI50 (SF-295): > 100 µM (inactive) | GI50 (ACHN): > 100 µM (inactive) | GI50 (SF-539): > 100 µM (inactive) | GI50 (SNB-75): > 100 µM (inactive) | GI50 (EKVX): > 100 µM (inactive) | GI50 (HOP-92): > 100 µM (inactive) | GI50 (MDA-MB-435): > 100 µM (inactive) | GI50 (T47D): > 100 µM (inactive) | GI50 (HT-29): > 100 µM (inactive) | GI50 (SK-OV-3): > 100 µM (inactive) | GI50 (UACC-257): > 100 µM (inactive) | GI50 (CCRF-CEM): > 100 µM (inactive) | GI50 (A498): > 100 µM (inactive) | GI50 (RPMI-8226): > 100 µM (inactive) | GI50 (MOLT-4): > 100 µM (inactive) | GI50 (HL-60): > 100 µM (inactive) | GI50 (M14): > 100 µM (inactive) | GI50 (TK-10): > 100 µM (inactive) | GI50 (SW-620): > 100 µM (inactive) | GI50 (SK-MEL-28): > 100 µM (inactive) | GI50 (K562): > 100 µM (inactive) | GI50 (HCT-15): > 100 µM | GI50 (LOX IMVI): > 100 µM (inactive) | GI50 (HOP-62): > 100 µM (inactive) | GI50 (DU-145): > 100 µM (inactive) | GI50 (Hs-578T): > 100 µM (inactive) | GI50 (UO-31): > 100 µM (inactive) | GI50 (SF-268): > 100 µM (inactive) | GI50 (HCC 2998): > 100 µM (inactive) | GI50 (PC-3): > 100 µM (inactive) | GI50 (OVCAR-4): > 100 µM (inactive) | GI50 (U-251): > 100 µM (inactive) | GI50 (MDA-MB-231): > 100 µM (inactive) | GI50 (BT-549): > 100 µM (inactive) | GI50 (COLO 205): > 100 µM (inactive) | GI50 (SK-MEL-2): > 100 µM (inactive) | GI50 (SNB-19): > 100 µM (inactive) | GI50 (SK-MEL-5): > 100 µM (inactive) | GI50 (NCI-H226): > 100 µM (inactive) | GI50 (RXF 393): > 100 µM (inactive) | GI50 (MCF7): > 100 µM (inactive) | GI50 (CAKI-1): > 100 µM (inactive) | GI50 (NCI-H23): > 100 µM (inactive) | GI50 (NCI-H460): > 100 µM (inactive) | GI50 (IGROV-1): > 100 µM (inactive) | GI50 (OVCAR-8): > 100 µM (inactive)

CN(C)CCNC(=O)c1cccc2c(NC(CS)C(=O)O)c3ccccc3[n+](C)c12 (stereo not drawn)
GI50 (SR): 22.7 µM (inactive) | GI50 (NCI/ADR-RES): 33.8 µM (inactive) | GI50 (HCT-116): 41.1 µM (inactive) | GI50 (KM12): > 100 µM (inactive) | GI50 (786-0): 69.2 µM (inactive) | GI50 (Malme-3M): 30.2 µM (inactive) | GI50 (UACC-62): 61.2 µM (inactive) | GI50 (SF-295): > 100 µM (inactive) | GI50 (ACHN): 35.5 µM (inactive) | GI50 (SF-539): 80.4 µM (inactive) | GI50 (SNB-75): 41.6 µM (inactive) | GI50 (EKVX): 56.9 µM (inactive) | GI50 (MDA-MB-435): 68.5 µM (inactive) | GI50 (T47D): 64.9 µM (inactive) | GI50 (HT-29): 99.3 µM (inactive) | GI50 (SK-OV-3): > 100 µM (inactive) | GI50 (UACC-257): 60.3 µM (inactive) | GI50 (A498): 77.4 µM (inactive) | GI50 (RPMI-8226): > 100 µM (inactive) | GI50 (MOLT-4): 41.9 µM (inactive) | GI50 (M14): > 100 µM (inactive) | GI50 (TK-10): > 100 µM (inactive) | GI50 (SW-620): 39.7 µM (inactive) | GI50 (SK-MEL-28): > 100 µM (inactive) | GI50 (K562): 87.9 µM (inactive) | GI50 (SN12C): 49.4 µM (inactive) | GI50 (A549): 62.1 µM (inactive) | GI50 (HCT-15): > 100 µM | GI50 (LOX IMVI): 32.8 µM (inactive) | GI50 (HOP-62): 60.8 µM (inactive) | GI50 (DU-145): 37.6 µM (inactive) | GI50 (Hs-578T): > 100 µM (inactive) | GI50 (UO-31): 71.8 µM (inactive) | GI50 (SF-268): 23.6 µM (inactive) | GI50 (OVCAR-5): > 100 µM (inactive) | GI50 (HCC 2998): 50 µM (inactive) | GI50 (PC-3): 49 µM (inactive) | GI50 (OVCAR-4): > 100 µM (inactive) | GI50 (U-251): > 100 µM (inactive) | GI50 (MDA-MB-231): 41.4 µM (inactive) | GI50 (BT-549): 35.6 µM (inactive) | GI50 (COLO 205): 43.9 µM (inactive) | GI50 (SK-MEL-2): > 100 µM (inactive) | GI50 (SNB-19): 84.7 µM (inactive) | GI50 (SK-MEL-5): 47 µM (inactive) | GI50 (MCF7): 95.5 µM (inactive) | GI50 (OVCAR-3): 81.3 µM (inactive) | GI50 (NCI-H23): 89.5 µM (inactive) | GI50 (NCI-H460): 45.5 µM (inactive) | GI50 (IGROV-1): 43.8 µM (inactive) | GI50 (OVCAR-8): 56.8 µM (inactive)
